This is an account of results in patent US20240108654A1, “COMBINATION OF A T CELL THERAPY AND A DGK INHIBITOR” (Juno Therapeutics, Inc., priority 2021, published 2024).

Structures are written as SMILES. pEC50, pIC50: −log10 of the molar value. Read-outs that look alike come from different tables or passages of the source.

Experiment [1] addresses human DGKα (Homo sapiens (Human), UniProt P23743). The experiment in a line: DGKα liposome (LIPGLO) in vitro DGK inhibition assay. Type of experiment: biochemical. To be noted: extruded liposome substrate; 150 μM ATP; 5 nM enzyme; read-out: DGKa LIPGLO IC50.
Protocol: The DGKα and DGKζ reactions were performed using either extruded liposome (DGKα and DGKζ LIPGLO assays) or detergent/lipid micelle substrate (DGKα and DGKζ assays). The reactions were carried out in 50 mM MOPS pH 7.5, 100 mM NaCl, 10 mM MgCl2, 1 μM CaCl2), and 1 mM DTT (assay buffer). The reactions using a detergent/lipid micelle substrate also contained 50 mM octyl B-D-glucopyranoside. The lipid substrate concentrations were 11 mM PS and 1 mM DAG for the detergent/lipid micelle reactions. […] The enzyme concentrations for the DGKα and DGKζ were 5 nM.
Experiment [2] concerns the target human DGKζ (Homo sapiens (Human), UniProt Q13574). The experiment in a line: DGKζ liposome (LIPGLO) in vitro DGK inhibition assay. The class given is biochemical. The note with it: extruded liposome substrate; 150 μM ATP; 5 nM enzyme; read-out: DGKz LIPGLO IC50. The protocol: The DGKα and DGKζ reactions were performed using either extruded liposome (DGKα and DGKζ LIPGLO assays) or detergent/lipid micelle substrate (DGKα and DGKζ assays). The reactions were carried out in 50 mM MOPS pH 7.5, 100 mM NaCl, 10 mM MgCl2, 1 μM CaCl2), and 1 mM DTT (assay buffer). The reactions using a detergent/lipid micelle substrate also contained 50 mM octyl B-D-glucopyranoside. The lipid substrate concentrations were 11 mM PS and 1 mM DAG for the detergent/lipid micelle reactions. The lipid substrate concentrations were 2 mM PS, 0.25 mM DAG, and 2.75 mM PC for the extruded liposome reactions. The reactions were carried out in 150 μM ATP. The enzyme concentrations for the DGKα and DGKζ were 5 nM.
The compound inhibition studies were carried out as follows: 50 nL droplets of each test compound (top concentration 10 mM with 11 point, 3-fold dilution series for each compound) solubilized in DMSO were transferred to wells of a white 1536 well plate (Corning 3725). A 5 mL enzyme/substrate solution at 2× final reaction concentration was prepared by combining 2.5 mL 4× enzyme solution (20 nM DGKα or DGKζ (prepared as described below) in assay buffer) and 2.5 mL of either 4× liposome or 4× detergent/lipid micelle solution (compositions described below) and incubated at room temperature for 10 minutes. Next, 1 μL 2× enzyme/substrate solution was added to wells containing the test compound and reactions were initiated with the addition of 1 μL 300 uM ATP. The reactions were allowed to proceed for 1 hr, after which 2 μL Glo Reagent (Promega V9101) was added and incubated for 40 minutes. Next, 4 μL Kinase Detection Reagent was added and incubated for 30 minutes. Luminescence was recorded using an EnVision microplate reader. […] The compounds were evaluated at 11 concentrations to determine IC50.
The lipid composition was 5 mol % DAG (Avanti 8008110), 40 mol % PS (Avanti 840035P), and 55 mol % PC (Avanti 850457) at a total lipid concentration of 15.2 mg/mL for the 4× liposome solution. The PC, DAG, and PS were dissolved in chloroform, combined, and dried in vacuo to a thin film. The lipids were hydrated to 20 mM in 50 mM MOPS pH 7.5, 100 mM NaCl, 5 mM MgCl2, and were freeze-thawed five times. The lipid suspension was extruded through a 100 nm polycarbonate filter eleven times. Dynamic light scattering was carried out to confirm liposome size (50-60 nm radius). The liposome preparation was stored at 4° C. for as long as four weeks.
Human DGK-alpha-TVMV-His-pFBgate and human DGK-zeta-transcript variant-2-TVMV-His-pFBgate baculovirus samples were generated using the Bac-to-Bac baculovirus expression system (Invitrogen) according to the manufacturer's protocol. The DNA used for expression of DGK-alpha and DGK-zeta have SEQ ID NOs: 251 and 252, respectively. Baculovirus amplification was achieved using infected Sf9 cells at 1:1500 virus/cell ratios, and grown for 65 hours at 27° C. post-transfection.
The expression scale up for each protein was carried out in the Cellbag 50 L WAVE-Bioreactor System 20/50 from GE Healthcare Bioscience. 12 L of 2×10^6 cells/mL Sf9 cells (Expression System, Davis, CA) grown in ESF921 insect medium (Expression System) were infected with virus stock at 1:200 virus/cell ratios, and grown for 66-68 hours at 27° C. post-infection. The infected cell culture was harvested by centrifugation at 2000 rpm for 20 min 4° C. in a SORVALL® RC12BP centrifuge. The cell pellets were stored at −70° C. until purification. […]

Experiment [3] relates to naïve human CD8 T cells. The experiment in a line: Human CD8 T cells IFN-γ assay. The class given is cell-based. The note with it: anti-CD3 plus anti-CD28 as baseline, 3 μM reference compound as 100% activation, 20 h, read-out: HuCD8 INFG Normalized EC50. The protocol: Frozen naïve human CD8 T cells were thawed in AIM-V media, incubated for 2 h in 37° C., and counted. The 384-well tissue culture plate was coated overnight at 4° C. with 20 μL anti-human CD3 at 0.05 μg/mL in PBS, which was removed off the plate before 40,000 cells per 40 microliters CD8 T cells with 0.1 μg/mL soluble anti-human CD28 were added to each well. The compounds were transferred using an Echo liquid handler to the cell plate immediately after the cells were plated. After 20 h incubation at 37° C. incubator, 3 microliters per well supernatants transferred into anew 384-well white assay plate for cytokine measurement.
Interferon-γ (IFN-γ) was quantitated using the AlphLISA kit (Cat #AL217) as described by the manufacturer manual (Perkin Elmer). The counts from each well were converted to IFN-γ concentration (pg/mL).

The test system of experiment [4] is OT-1 antigen-specific CD8+ T cells with SIINFEKL-loaded MC38 tumor cells. The experiment in a line: Murine cytotoxic T lymphocyte (CTL) assay, IFN-γ readout. Type of experiment: cell-based, mouse. The note with it: IFN-γ in supernatant after 24 hours, AlphaLisa; read-out: msCTL INFg IC50. From the text:
An antigen-specific cytolytic T-cell (CTL) assay was developed to evaluate functionally the ability of DGKα and DGKζ inhibitors to enhance effector T cell mediated tumor cell killing activity. CD8+ T-cells isolated from the OT-1 transgenic mouse recognize antigen presenting cells, MC38, that present the ovalbumin derived peptide […]. Recognition of the cognate antigen initiates the cytolytic activity of the OT-1 antigen-specific CD8+ T cells.
Functional CTL cells were generated as follows: OT-1 splenocytes from 8-12 week old mice were isolated and expanded in the presence of the […] peptide at 1 μg/mL and mIL2 at 10 U/mL. After three days, fresh media with […] was added. On day 5 of the expansion, the CD8+ T cells were isolated and ready for use. Activated CTL cells may be stored frozen for 6 months. Separately, one million MC38 tumor cells were pulsed with 1 μg/mL of […]-OVA peptide for 3 hours at 37° C. The cells were washed (3×) with fresh media to remove excess peptide. Finally, CTL cells that were pretreated with DGK inhibitors for 1 hour in a 96-well U bottom plate were combined with the antigen loaded MC38 tumor cells at a 1:10 ratio. The cells were then spun at 700 rpm for 5 min and placed in an incubator overnight at 37° C. After 24 hours, the supernatant was collected for analysis of IFN-γ cytokine levels by AlphaLisa purchased from Perkin Elmer.

In experiment [5] the test system is Human venous whole blood. The experiment in a line: Human whole blood IFN-γ assay. Type of experiment: cell-based. The note with it: anti-CD3 and anti-CD28 1 μg/mL each, 3 μM reference compound as 100% activation, read-out: INFg Whole Blood Normalized Agonist EC50. The procedure: Human venous whole blood (22.5 μL per well), obtained from healthy donors, was pre-treated with compounds for one hour at 37° C. in a humidified 95% air/5% CO2 incubator. The blood was stimulated with 2.5 μL anti-human CD3 and anti-CD28 mAb at a final concentration of 1 μg/mL each for 24 hours at 37° C. IFN-γ in the supernatants was measured using ALphLISA kit (Cat #AL217).

human DGKα, sequence (P23743 other isoform, or with tags, fused parts or gaps): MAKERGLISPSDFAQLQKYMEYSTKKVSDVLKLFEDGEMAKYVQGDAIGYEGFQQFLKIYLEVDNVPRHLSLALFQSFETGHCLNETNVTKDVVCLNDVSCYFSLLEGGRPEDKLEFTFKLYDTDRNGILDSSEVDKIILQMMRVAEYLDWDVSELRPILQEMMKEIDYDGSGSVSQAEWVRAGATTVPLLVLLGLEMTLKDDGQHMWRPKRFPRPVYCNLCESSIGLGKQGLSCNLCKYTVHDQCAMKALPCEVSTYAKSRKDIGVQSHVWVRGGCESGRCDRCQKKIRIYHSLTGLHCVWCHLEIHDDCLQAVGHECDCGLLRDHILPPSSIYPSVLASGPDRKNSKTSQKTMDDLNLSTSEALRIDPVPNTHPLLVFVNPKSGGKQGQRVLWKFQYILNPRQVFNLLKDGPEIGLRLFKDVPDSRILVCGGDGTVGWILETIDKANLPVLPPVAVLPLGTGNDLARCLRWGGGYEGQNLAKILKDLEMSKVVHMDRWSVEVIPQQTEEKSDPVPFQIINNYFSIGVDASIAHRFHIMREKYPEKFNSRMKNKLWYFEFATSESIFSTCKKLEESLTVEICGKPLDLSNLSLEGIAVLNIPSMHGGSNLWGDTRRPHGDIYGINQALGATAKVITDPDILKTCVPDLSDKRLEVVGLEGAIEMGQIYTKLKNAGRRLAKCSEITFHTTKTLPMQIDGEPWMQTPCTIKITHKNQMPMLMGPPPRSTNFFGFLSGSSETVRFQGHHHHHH
human DGKζ, sequence (Q13574 other isoform, or with tags, fused parts or gaps isoform Q13574-4): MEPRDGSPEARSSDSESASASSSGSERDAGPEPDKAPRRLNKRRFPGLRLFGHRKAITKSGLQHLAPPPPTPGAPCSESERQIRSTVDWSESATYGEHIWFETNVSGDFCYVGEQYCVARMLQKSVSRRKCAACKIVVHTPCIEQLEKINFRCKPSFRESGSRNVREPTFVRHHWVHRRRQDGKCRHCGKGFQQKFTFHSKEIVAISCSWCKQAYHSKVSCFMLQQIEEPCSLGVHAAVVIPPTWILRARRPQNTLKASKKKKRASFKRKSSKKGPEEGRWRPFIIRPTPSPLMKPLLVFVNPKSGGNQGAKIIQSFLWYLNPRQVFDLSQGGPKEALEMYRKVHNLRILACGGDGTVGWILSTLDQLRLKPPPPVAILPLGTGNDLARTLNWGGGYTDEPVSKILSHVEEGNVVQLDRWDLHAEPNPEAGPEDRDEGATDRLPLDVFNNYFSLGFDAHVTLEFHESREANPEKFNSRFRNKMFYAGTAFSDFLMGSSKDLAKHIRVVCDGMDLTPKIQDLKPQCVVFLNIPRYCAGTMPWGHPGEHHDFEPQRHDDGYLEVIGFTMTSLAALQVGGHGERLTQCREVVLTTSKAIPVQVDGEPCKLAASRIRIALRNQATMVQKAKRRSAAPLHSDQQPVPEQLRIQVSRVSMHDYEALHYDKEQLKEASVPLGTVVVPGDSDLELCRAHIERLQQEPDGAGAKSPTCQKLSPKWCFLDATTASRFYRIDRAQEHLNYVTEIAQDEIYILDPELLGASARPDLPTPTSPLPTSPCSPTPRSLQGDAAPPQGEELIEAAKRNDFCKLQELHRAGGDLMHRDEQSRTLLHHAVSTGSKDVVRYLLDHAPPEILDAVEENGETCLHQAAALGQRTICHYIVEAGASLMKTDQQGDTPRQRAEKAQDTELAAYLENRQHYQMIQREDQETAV

Broadly, the pIC50 is the IC50 on a negative log10 scale, so that one unit is a factor of ten. In the case of `CCC(c1ccc(F)cc1F)N1C[C@H](C)N(c2cc(=O)n(C)c3ccc(C#N)nc23)C[C@H]1C` (mixture of isomers) [Compound 12, 8-((2S,5R)-4-(1-(2,4-difluorophenyl)propyl)-2,5-dimethylpiperazin-1-yl)-5-methyl-6-oxo-5,6-dihydro-1,5-naphthyridine-2-carbonitrile], the negative logarithm of the IC50 (pIC50) in experiment [1] was 6.24; in experiment [2], 6.34. One may read the pEC50 as the negative decadic logarithm of the EC50, by convention in mol/L. Turning to `C[C@@H]1CN(c2cc(=O)n(C)c3ccc(C#N)nc23)[C@@H](C)CN1C(c1ccccc1)c1ccc(F)cc1` (single isomer, unassigned) [Compound 7], the pEC50 is 7.33 in experiment [3] and 6.24 in experiment [5] (24 hours). Further, the pIC50 in experiment [4] was 7.19. On to `CC[C@@H]1CN(c2nc(=O)n(C)c3ccc(C#N)nc23)[C@@H](C)CN1C(C)c1ccc(C(F)(F)F)cc1` (single isomer, unassigned) [Compound 19], for which, in experiment [5] (24 hours), the negative logarithm of the EC50 (pEC50) is 6.28.

For the compound `CC[C@@H]1CN(c2nc(=O)n(C)c3ccc(C#N)nc23)[C@@H](C)CN1C(C)c1ccc(C(F)(F)F)cc1` (single isomer, unassigned) [Compound 20], the negative-log EC50 (pEC50) in experiment [5] (24 hours) was 7.49.

In the case of `CC[C@@H]1CN(c2nc(=O)n(C)c3ccc(C#N)nc23)[C@@H](C)CN1C(c1ccc(F)cc1)c1ccc(C(F)(F)F)cn1` (single isomer, unassigned) [Compound 22], the pEC50 in experiment [5] (Homo sapiens, 24 h) was 7.70.

As for `CC[C@@H]1CN(c2nc(=O)n(C)c3ccc(C#N)nc23)[C@@H](C)CN1C(c1ccc(Cl)cc1)c1ccccn1` (single isomer, unassigned) [Compound 23], the negative logarithm of the EC50 (pEC50) in experiment [5] (24 hours) is 4.98. As for `CC[C@@H]1CN(c2nc(=O)n(C)c3ccc(C#N)nc23)[C@@H](C)CN1C(c1ccc(Cl)cc1)c1ccccn1` (single isomer, unassigned) [Compound 24], the negative logarithm of the EC50 (pEC50) in experiment [5] (24 hours) was 6.70. As for `CCC1CN(C(c2ccc(F)cc2)c2nc(C3CC3)no2)C(CC)CN1c1nc(=O)n(C)c2ccc(C#N)nc12` (single isomer, unassigned) [Compound 25], the negative-log EC50 (pEC50) in experiment [5] (24 hours) was 7.82. The negative logarithm of the IC50 (pIC50) is 7.17 in experiment [1] and 7.54 in experiment [2]. In the case of `CCC1CN(C(c2ccc(F)cc2)c2nc(C3CC3)no2)C(CC)CN1c1nc(=O)n(C)c2ccc(C#N)nc12` (single isomer, unassigned) [Compound 26], in experiment [5] (24 hours), the pEC50 is 7.05. For the same compound, the negative logarithm of the IC50 (pIC50) is 7.85 in experiment [1] and 7.48 in experiment [2]. For `C[C@@H]1CN(c2cc(=O)n(C)c3ccc(C#N)nc23)[C@@H](C)CN1C(c1ccccc1)c1ccc(F)cc1` (stereo partly drawn) [Compound 5, 8-[(2S,5R)-4-[(4-fluorophenyl)(phenyl)methyl]-2,5-dimethylpiperazin-1-yl]-5-methyl-6-oxo-5,6-dihydro-1,5-naphthyridine-2-carbonitrile], the pIC50 is 6.06 in experiment [1] and 5.80 in experiment [2]. Consider `Cc1ccc(C(c2ccc(F)cc2)N2C[C@H](C)N(c3cc(=O)n(C)c4ccc(C#N)nc34)C[C@H]2C)cc1` (stereo partly drawn) [Compound 10, 8-[(2S,5R)-4-[(4-fluorophenyl)(4-methylphenyl)methyl]-2,5-dimethylpiperazin-1-yl]-5-methyl-6-oxo-5,6-dihydro-1,5-naphthyridine-2-carbonitrile], for which the pEC50 in experiment [3] (Homo sapiens, T-cell) is 7.64; in experiment [5] (Homo sapiens, 24 h), 6.36. Also, the negative-log IC50 (pIC50) in experiment [1] is 6.17; in experiment [2], 6.49. For `CCC(c1ccc(C(F)(F)F)cc1)N1C[C@H](CC)N(c2nc(=O)n(C)c3ccc(C#N)nc23)C[C@H]1CC` (stereo partly drawn) [Compound 18, 4-((2S,5R)-2,5-Diethyl-4-(1-(4-(trifluoromethyl)phenyl)propyl)piperazin-1-yl)-1-methyl-2-oxo-1,2-dihydropyrido[3,2-d]pyrimidine-6-carbonitrile], the pEC50 in experiment [5] (24 hours) was 5.43.

Turning to `CC[C@@H]1CN(c2nc(=O)n(C)c3ccc(C#N)nc23)[C@@H](C)CN1C(c1ccc(F)cc1)c1ccc(C(F)(F)F)cn1` (stereo partly drawn) [Compound 21, 4-((2S,5R)-5-Ethyl-4-((4-fluorophenyl)(5-(trifluoromethyl)pyridin-2-yl)methyl)-2-methylpiperazin-1-yl)-1-methyl-2-oxo-1,2-dihydropyrido[3,2-d]pyrimidine-6-carbonitrile], the negative-log EC50 (pEC50) in experiment [5] (Homo sapiens, 24 h) is 7.37.
